# In PubChem BioAssay (NCI):
#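 The concentration for 50% growth inhibition is given as GI50. Definition used: TGI = concentration required for complete inhibition of growth.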
# Legend:
# Test in all cases: NCI anticancer screen, dose series, 384-well format
# 786-0 renal = tested on: 786-0 renal
# A498 renal = tested on: A498 renal
# ACHN renal = tested on: ACHN renal
# BT-549 breast = tested on: BT-549 breast
# CAKI-1 renal = tested on: CAKI-1 renal
# COLO 205 colon = tested on: COLO 205 colon
# DU-145 prostate = tested on: DU-145 prostate
# EKVX NSCLC = tested on: EKVX NSCLC
# HCC-2998 colon = tested on: HCC-2998 colon
# HCT-116 colon = tested on: HCT-116 colon
# HL-60(TB) leukemia = tested on: HL-60(TB) leukemia
# HOP-62 NSCLC = tested on: HOP-62 NSCLC
# HOP-92 NSCLC = tested on: HOP-92 NSCLC
# HS 578T breast = tested on: HS 578T breast
# HT29 colon = tested on: HT29 colon
# IGROV1 ovarian = tested on: IGROV1 ovarian
# K-562 leukemia = tested on: K-562 leukemia
# KM12 colon = tested on: KM12 colon
# LOX IMVI melanoma = tested on: LOX IMVI melanoma
# MALME-3M melanoma = tested on: MALME-3M melanoma
# MCF7 breast = tested on: MCF7 breast
# MDA-MB-231 breast = tested on: MDA-MB-231 breast
# MDA-MB-468 breast = tested on: MDA-MB-468 breast
# NCI-H226 lung = tested on: NCI-H226 lung
# NCI-H23 lung = tested on: NCI-H23 lung
# NCI-H322M lung = tested on: NCI-H322M lung
# NCI-H460 NSCLC = tested on: NCI-H460 NSCLC
# NCI-H522 lung = tested on: NCI-H522 lung
# NCI/ADR-RES ovarian = tested on: NCI/ADR-RES ovarian
# OVCAR-3 ovarian = tested on: OVCAR-3 ovarian
# OVCAR-8 ovarian = tested on: OVCAR-8 ovarian
# PC-3 prostate = tested on: PC-3 prostate
# RPMI-8226 leukemia = tested on: RPMI-8226 leukemia
# RXF 393 renal = tested on: RXF 393 renal
# SF-268 CNS = tested on: SF-268 CNS
# SF-295 CNS = tested on: SF-295 CNS
# SK-MEL-28 melanoma = tested on: SK-MEL-28 melanoma
# SK-MEL-5 melanoma = tested on: SK-MEL-5 melanoma
# SK-OV-3 ovarian = tested on: SK-OV-3 ovarian
# SN12C renal = tested on: SN12C renal
# SNB-19 CNS = tested on: SNB-19 CNS
# SR leukemia = tested on: SR leukemia
# T-47D breast = tested on: T-47D breast
# TK-10 renal = tested on: TK-10 renal
# U251 glioblastoma = tested on: U251 glioblastoma
# UACC-257 melanoma = tested on: UACC-257 melanoma
# UACC-62 melanoma = tested on: UACC-62 melanoma
structure (smiles),measurement,setting,value
C=CC(=O)N1CCC(CNc2ncnc(N)c2-c2ccc(Oc3ccccc3)cc2)CC1,GI50,786-0 renal,18.7 µM
same,TGI,786-0 renal,42.9 µM
same,GI50,A498 renal,17.2 µM
same,TGI,A498 renal,37 µM
same,GI50,ACHN renal,25.4 µM
same,TGI,ACHN renal,66.4 µM
same,GI50,BT-549 breast,14.1 µM
same,TGI,BT-549 breast,28.6 µM
same,GI50,CAKI-1 renal,16.9 µM
same,TGI,CAKI-1 renal,43.1 µM
same,GI50,COLO 205 colon,22.5 µM
same,TGI,COLO 205 colon,49.9 µM
same,GI50,DU-145 prostate,19.5 µM
same,TGI,DU-145 prostate,46.4 µM
same,GI50,EKVX NSCLC,20.1 µM
same,TGI,EKVX NSCLC,48.7 µM
same,GI50,HCC-2998 colon,18.7 µM
same,TGI,HCC-2998 colon,33.2 µM
same,GI50,HCT-116 colon,21.1 µM
same,TGI,HCT-116 colon,48.3 µM
same,GI50,HL-60(TB) leukemia,11.8 µM
same,TGI,HL-60(TB) leukemia,24 µM
same,GI50,HOP-62 NSCLC,20.7 µM
same,TGI,HOP-62 NSCLC,48.3 µM
same,GI50,HOP-92 NSCLC,15.2 µM
same,TGI,HOP-92 NSCLC,39.1 µM
same,GI50,HS 578T breast,11.4 µM
same,TGI,HS 578T breast,24.5 µM
same,GI50,HT29 colon,25 µM
same,TGI,HT29 colon,63.1 µM
same,GI50,IGROV1 ovarian,14.6 µM
same,TGI,IGROV1 ovarian,28.3 µM
same,GI50,K-562 leukemia,15.2 µM
same,TGI,K-562 leukemia,29.5 µM
same,GI50,KM12 colon,23 µM
same,TGI,KM12 colon,47.6 µM
same,GI50,LOX IMVI melanoma,17.2 µM
same,TGI,LOX IMVI melanoma,31 µM
same,GI50,MALME-3M melanoma,30.5 µM
same,TGI,MALME-3M melanoma,> 73.5 µM
same,GI50,MCF7 breast,25.7 µM
same,TGI,MCF7 breast,98.1 µM
same,GI50,MDA-MB-231 breast,20.4 µM
same,TGI,MDA-MB-231 breast,52.6 µM
same,GI50,MDA-MB-468 breast,10.6 µM
same,TGI,MDA-MB-468 breast,23.2 µM
same,GI50,NCI-H226 lung,15.6 µM
same,TGI,NCI-H226 lung,36 µM
same,GI50,NCI-H23 lung,20.3 µM
same,TGI,NCI-H23 lung,42.2 µM
same,GI50,NCI-H322M lung,20.4 µM
same,TGI,NCI-H322M lung,> 69.2 µM
same,GI50,NCI-H460 NSCLC,19.6 µM
same,TGI,NCI-H460 NSCLC,41.2 µM
same,GI50,NCI-H522 lung,4.12 µM
same,TGI,NCI-H522 lung,15.7 µM
same,GI50,NCI/ADR-RES ovarian,15.9 µM
same,TGI,NCI/ADR-RES ovarian,34.5 µM
same,GI50,OVCAR-3 ovarian,16.1 µM
same,TGI,OVCAR-3 ovarian,30.5 µM
same,GI50,OVCAR-8 ovarian,21.2 µM
same,TGI,OVCAR-8 ovarian,> 62.2 µM
same,GI50,PC-3 prostate,18.5 µM
same,TGI,PC-3 prostate,41.2 µM
same,GI50,RPMI-8226 leukemia,9.92 µM
same,TGI,RPMI-8226 leukemia,22.3 µM
same,GI50,RXF 393 renal,15.1 µM
same,TGI,RXF 393 renal,36.6 µM
same,GI50,SF-268 CNS,17 µM
same,TGI,SF-268 CNS,37.9 µM
same,GI50,SF-295 CNS,26.1 µM
same,TGI,SF-295 CNS,> 71.1 µM
same,GI50,SK-MEL-28 melanoma,36.4 µM
same,TGI,SK-MEL-28 melanoma,> 86.9 µM
same,GI50,SK-MEL-5 melanoma,16.1 µM
same,TGI,SK-MEL-5 melanoma,30.6 µM
same,GI50,SK-OV-3 ovarian,16.2 µM
same,TGI,SK-OV-3 ovarian,44.9 µM
same,GI50,SN12C renal,17 µM
same,TGI,SN12C renal,43 µM
same,GI50,SNB-19 CNS,23.4 µM
same,TGI,SNB-19 CNS,71.7 µM
same,GI50,SR leukemia,8.25 µM
same,TGI,SR leukemia,21.3 µM
same,GI50,T-47D breast,17.7 µM
same,TGI,T-47D breast,46.6 µM
same,GI50,TK-10 renal,18.3 µM
same,TGI,TK-10 renal,36.2 µM
same,GI50,U251 glioblastoma,18.6 µM
same,TGI,U251 glioblastoma,40.6 µM
same,GI50,UACC-257 melanoma,18.1 µM
same,TGI,UACC-257 melanoma,34.2 µM
same,GI50,UACC-62 melanoma,16.6 µM
same,TGI,UACC-62 melanoma,33.5 µM
